The target of one test is CDK2/CyclinE (Homo sapiens (Human), UniProt P24941). Description: CDK2/CycE kinase assay (TR-FRET). The format is biochemical. To be noted: 2 mM ATP (high ATP); median; read-out: CDK2/CyclinE, 2 mM ATP (high ATP), IC50 - [mol/l] (median). From the text:
CDK2/CycE-inhibitory activity of compounds of the present invention was quantified employing the CDK2/CycE TR-FRET assay as described in the following paragraphs.
Recombinant fusion proteins of GST and human CDK2 and of GST and human CycE, expressed in insect cells (Sf9) and purified by Glutathion-Sepharose affinity chromatography, were purchased from ProQinase GmbH (Freiburg, Germany). As substrate for the kinase reaction biotinylated peptide biotin-Ttds-YISPLKSPYKISEG (C-terminus in amid form) was used which can be purchased e.g. form the company JERINI peptide technologies (Berlin, Germany).
For the assay 50 nanoL of a 100 fold concentrated solution of the test compound in DMSO was pipetted into a black low volume 384 well microtiter plate or a black 1536 well microtiter plate (both Greiner Bio-One, Frickenhausen, Germany), 2 microL of a solution of CDK2/CycE in aqueous assay buffer [50 millimol/L Tris/HCl PH 8.0, 10 millimol/L MgCl2, 1.0 millimol/L dithiothreitol, 0.1 millimol/L sodium ortho-vanadate, 0.01% (v/v) Nonidet-P40 (Sigma)] were added and the mixture was incubated for 15 min at 22° C. to allow pre-binding of the test compounds to the enzyme before the start of the kinase reaction. Then the kinase reaction was started by the addition of 3 microL of a solution of adenosine-tri-phosphate (ATP, 3.33 millimol/L=>final conc. in the 5 microL assay volume is 2 millimol/L) and substrate (1.25 micromol/L=>final conc. in the 5 microL assay volume is 0.75 micromol/L) in assay buffer and the resulting mixture was incubated for a reaction time of 25 min at 22° C. The concentration of CDK2/CycE was adjusted depending of the activity of the enzyme lot and was chosen appropriate to have the assay in the linear range, typical concentrations were in the range of 10 ng/ml. The reaction was stopped by the addition of 3 microL of a solution of TR-FRET detection reagents (0.333 micromol/L streptavidine-XL665 [Cisbio Bioassays, Codolet, France] and 1.67 nanomol/L anti-RB (pSer807/pSer811)-antibody from BD Pharmingen [#558389] and 2 nanomol/L LANCE EU-W1024 labeled anti-mouse IgG antibody [Perkin-Elmer, product no. AD0077, as an alternative a Terbium-cryptate-labeled anti-mouse IgG antibody from Cisbio Bioassays can be used]) in an aqueous EDTA-solution (167 millimol/L EDTA, 0.2% (w/v) bovine serum albumin in 100 millimol/L HEPES pH 7.5).
The resulting mixture was incubated 1 h at 22° C. to allow the formation of complex between the phosphorylated biotinylated peptide and the detection reagents. Subsequently the amount of phosphorylated substrate was evaluated by measurement of the resonance energy transfer from the Eu-chelate to the streptavidine-XL. Therefore, the fluorescence emissions at 620 nm and 665 nm after excitation at 350 nm was measured in a TR-FRET reader, e.g. a Pherastar (BMG Labtechnologies, Offenburg, Germany) or a Viewlux (Perkin-Elmer). The ratio of the emissions at 665 nm and at […] was taken as the measure for the amount of phosphorylated substrate. The data were normalised (enzyme reaction without inhibitor=0% inhibition, all other assay components but no enzyme=100% inhibition).
On the technique in general: Time-resolved FRET reads energy transfer from a long-lived donor to a nearby acceptor.

Test [1] relates to CAL-120, human breast adenocarcinoma cells. Description: Proliferation assay CAL-120 (crystal violet). The format is cell-based. To be noted: 96 h, CAL-120 parental cells, 4 days, median, read-out: Prolif-CAL-120, IC50 - [mol/l] (median). The procedure:
Human tumour cells were originally obtained from the American Type Culture Collection (ATCC), or from the Deutsche Sammlung von Mikroorganismen und Zellkulturen (DSMZ, German Collection of Microorganisms and Cell Cultures). Cultivated tumour cells (CAL-120, human breast adenocarcinoma cells, DSMZ ACC-459; MDA-MB-231, human breast cancer cells, ATCC HTB-26) were plated at a density of 4,000 cells/well in a 96-well multitier plate in 200 microL of their respective growth medium supplemented 10% fetal calf serum. After 24 hours, the cells of one plate (zero-point plate) were stained with crystal violet (see below), while the medium of the other plates was supplemented with the test substances in various concentrations (0 micromol/L, as well as in the range of 0.01-10 micromol/L; the final concentration of the solvent dimethyl sulfoxide was adjusted to 0.1%) using a Tecan HP D300 Digital Dispenser. The cells were incubated for 4 days in the presence of test substances. Cell proliferation was determined by staining the cells with crystal violet: the cells were fixed by adding 20 microL/measuring point of an 11% glutaric aldehyde solution for 15 minutes at room temperature. After three washing cycles of the fixed cells with water, the plates were dried at room temperature. The cells were stained by adding 100 microL/measuring point of a 0.1% crystal violet solution (pH 3.0). After three washing cycles of the stained cells with water, the plates were dried at room temperature. The dye was dissolved by adding 100 microL/measuring point of a 10% acetic acid solution. The extinction was determined by photometry at a wavelength of 595 nm. The change of cell number, in percent, was calculated by normalization of the measured values to the extinction values of the zero-point plate (=0%) and the extinction of the untreated (0 μM) cells (=100%). The IC50 values (inhibitory concentration at 50% of maximal effect) were determined by means of a 4 parameter fit.

SMILES strings stand for the structures.

With `FC(F)(F)c1ccc(-c2nnc(CNc3nc(N4CCOCC4)nc4c(Br)cnn34)[nH]2)cc1` [Example 1, 8-bromo-2-(morpholin-4-yl)-N-({5-[4-(trifluoromethyl)phenyl]-4H-1,2,4-triazol-3-yl}methyl)pyrazolo[1,5-a][1,3,5]triazin-4-amine], the IC50 on CDK2/CyclinE is 9.81 µM; in test [1], 0.58 µM.

With `FC(F)(F)Oc1ccc(-c2nnc(CNc3nc(N4CCOCC4)nc4c(Br)cnn34)[nH]2)cc1` [Example 2, 8-bromo-2-(morpholin-4-yl)-N-({5-[4-(trifluoromethoxy)phenyl]-4H-1,2,4-triazol-3-yl}methyl)pyrazolo[1,5-a][1,3,5]triazin-4-amine], the IC50 came to 11.2 µM on CDK2/CyclinE and 0.37 µM in test [1]. On the same counts, the results for `FC(F)(F)c1ccc(-c2cnc(CNc3nc(N4CCOCC4)nc4c(Br)cnn34)[nH]2)cc1` [Example 3, 8-bromo-2-(morpholin-4-yl)-N-({5-[4-(trifluoromethyl)phenyl]-1H-imidazol-2-yl}methyl)pyrazolo[1,5-a][1,3,5]triazin-4-amine] are 7.92 µM and 0.173 µM. The matching figures for `FC(F)(F)Oc1ccc(-c2cnc(CNc3nc(N4CCOCC4)nc4c(Br)cnn34)[nH]2)cc1` [Example 4, 8-bromo-2-(morpholin-4-yl)-N-({5-[4-(trifluoromethoxy)phenyl]-1H-imidazol-2-yl}methyl)pyrazolo[1,5-a][1,3,5]triazin-4-amine]: 10.4 µM and 0.103 µM. The matching figures for `FC(F)(F)Oc1ccc(-c2nnc(CNc3nc(N4CCOCC4)nc4c(C(F)(F)F)cnn34)[nH]2)cc1` [Example 5, 2-(morpholin-4-yl)-N-({5-[4-(trifluoromethoxy)phenyl]-4H-1,2,4-triazol-3-yl}methyl)-8-(trifluoromethyl)pyrazolo[1,5-a][1,3,5]triazin-4-amine]: over 20 µM and 0.319 µM. As to `FC(F)(F)c1ccc(-c2nnc(CNc3nc(N4CCOCC4)nc4c(C(F)(F)F)cnn34)[nH]2)cc1` [Example 6, 2-(morpholin-4-yl)-8-(trifluoromethyl)-N-({5-[4-(trifluoromethyl)phenyl]-4H-1,2,4-triazol-3-yl}methyl)pyrazolo[1,5-a][1,3,5]triazin-4-amine], the figures for the IC50 (at CDK2/CyclinE; in test [1]) were over 20 µM and 0.224 µM, respectively.

Consider `FC(F)(F)c1ccc(-c2cnc(CNc3nc(N4CCOCC4)nn4c(C(F)(F)F)cnc34)[nH]2)cc1` [Example 7, 2-(morpholin-4-yl)-7-(trifluoromethyl)-N-({5-[4-(trifluoromethyl)phenyl]-1H-imidazol-2-yl}methyl)imidazo[2,1-f][1,2,4]triazin-4-amine], for which the IC50 is over 20 µM on CDK2/CyclinE and 0.103 µM in test [1]. The matching figures for `FC(F)(F)Oc1ccc(-c2cnc(CNc3nc(N4CCOCC4)nn4c(C(F)(F)F)cnc34)[nH]2)cc1` [Example 8, 2-(morpholin-4-yl)-N-({5-[4-(trifluoromethoxy)phenyl]-1H-imidazol-2-yl}methyl)-7-(trifluoromethyl)imidazo[2,1-f][1,2,4]triazin-4-amine]: over 20 µM and 0.0907 µM. The matching figures for `FC(F)(F)c1ccc(-c2cnc(CNc3nc(N4CCOCC4)nc4c(C(F)(F)F)cnn34)[nH]2)cc1` [Example 9, 2-(morpholin-4-yl)-8-(trifluoromethyl)-N-({5-[4-(trifluoromethyl)phenyl]-1H-imidazol-2-yl}methyl)pyrazolo[1,5-a][1,3,5]triazin-4-amine]: over 20 µM and 0.109 µM. On the same counts, the results for `FC(F)(F)Oc1ccc(-c2cnc(CNc3nc(N4CCOCC4)nc4c(C(F)(F)F)cnn34)[nH]2)cc1` [Example 10, 2-(morpholin-4-yl)-N-({5-[4-(trifluoromethoxy)phenyl]-1H-imidazol-2-yl}methyl)-8-(trifluoromethyl)pyrazolo[1,5-a][1,3,5]triazin-4-amine] are over 20 µM and 0.0698 µM. As to `FC(F)(F)c1ccc(-c2nnc(CNc3nc(N4CCOCC4)nn4c(C(F)(F)F)cnc34)[nH]2)cc1` [Example 11, 2-(morpholin-4-yl)-7-(trifluoromethyl)-N-({5-[4-(trifluoromethyl)phenyl]-4H-1,2,4-triazol-3-yl}methyl)imidazo[2,1-f][1,2,4]triazin-4-amine], the IC50 is over 20 µM on CDK2/CyclinE and 0.419 µM in test [1]. The matching figures for `FC(F)(F)c1ccc(-c2cnc(CNc3nc(N4CCOCC4)nn4c(C(F)(F)F)cnc34)[nH]2)cn1` [Example 12, 2-(morpholin-4-yl)-7-(trifluoromethyl)-N-({5-[6-(trifluoromethyl)pyridin-3-yl]-1H-imidazol-2-yl}methyl)imidazo[2,1-f][1,2,4]triazin-4-amine]: over 20 µM and 0.0148 µM.

For the compound `FC(F)(F)Oc1ccc(-c2nnc(CNc3nc(N4CCOCC4)nn4c(C(F)(F)F)cnc34)[nH]2)cc1` [Example 14, 2-(morpholin-4-yl)-N-({5-[4-(trifluoromethoxy)phenyl]-4H-1,2,4-triazol-3-yl}methyl)-7-(trifluoromethyl)imidazo[2,1-f][1,2,4]triazin-4-amine], the IC50 was over 20 µM on CDK2/CyclinE and 0.248 µM in test [1].

`COc1ccc(-c2nnc(CNc3nc(N4CCOCC4)nc4c(C(F)(F)F)cnn34)[nH]2)cn1` [Example 15, N-{[5-(6-methoxypyridin-3-yl)-4H-1,2,4-triazol-3-yl]methyl}-2-(morpholin-4-yl)-8-(trifluoromethyl)pyrazolo[1,5-a][1,3,5]triazin-4-amine]: the IC50 was 3.12 µM on CDK2/CyclinE and 0.355 µM in test [1]. On to `COc1ccc(-c2nnc(CNc3nc(N4CCOCC4)nn4c(C(F)(F)F)cnc34)[nH]2)cn1` [Example 18, N-{[5-(6-methoxypyridin-3-yl)-4H-1,2,4-triazol-3-yl]methyl}-2-(morpholin-4-yl)-7-(trifluoromethyl)imidazo[2,1-f][1,2,4]triazin-4-amine], for which the IC50 in test [1] is 0.104 µM.

With `FC(F)(F)c1ccc(-c2cnc(CNc3nc(N4CCOCC4)nc4c(C(F)(F)F)cnn34)[nH]2)cn1` [Example 24, 2-(morpholin-4-yl)-8-(trifluoromethyl)-N-({5-[6-(trifluoromethyl)pyridin-3-yl]-1H-imidazol-2-yl}methyl)pyrazolo[1,5-a][1,3,5]triazin-4-amine], the IC50 in test [1] came out at 0.0302 µM.

(Values after US20250066370A1, “BICYCLIC TRIAZINE DERIVATIVES FOR THE TREATMENT OF CANCER” (DEUTSCHES KREBSFORSCHUNGSZENTRUM, priority 2022, published 2025).)
